Source: patent publication US10220024B2, “Method of inhibiting cancer cell, method for detecting cancer cell, and system for detecting cancer cell” (CANON KABUSHIKI KAISHA, priority 2012, dated 2019)
Read-outs that look alike come from different tables or passages of the source.

Tests used:
[1] = Measurement of fluorescent property of compound (spectrofluorometer); assay type: physicochemical; conditions: 5 μM DMSO solution
Method: The excitation wavelength and fluorescence wavelength of the compound were measured by a FL4500 spectrofluorometric measuring machine manufactured by Hitachi High-Technologies Corporation.

[2] = test system: Prostatic cancer cells, PC-3; test: Cancer cell inhibitory (growth suppressive) action against prostatic cancer cells, CellTiter-Glo viable cell count; assay type: cell-based; conditions: PC-3, 10 μg/mL, 24 hours
Method: Prostatic cancer cells, PC-3, were pre-cultured in RPMI1640 medium containing 10% FBS at 37° C. in a 5% CO2 ambient. Thereafter, 4,000 cells were seeded per well of a 96-well plate and further cultured for 24 hours. Subsequently, Compound (11) was added to the medium so as to obtain a final concentration of 10 μg/mL and cultured at 37° C. for 24 hours in a 5% CO2 ambient. The cultured cells were analyzed for viable cell count according to CellTiter-Glo Luminescent Cell Viability Assay (manufactured by Promega KK.). As a reference, the number of cells cultured in a medium containing a 0.1% dimethylsulfoxide solution (hereinafter, simply referred to as DMSO) in place of a medium containing Compound (11), in the aforementioned operation, was used as 100.
Viable cell count was analyzed in the same manner as in Experimental Example 8 except that the compounds shown in Table 3 were used in place of Compound (11) of Experimental Example 8.
Viable cell count was analyzed in the same manner as in Experimental Example 8 except that comparative compounds 1 to 4 were used in place of Compound (11) of Experimental Example 8.
The growth rate in Examples herein is a numerical value of the number of cells obtained after culture relative to the number of cells (regarded as 100) grown in a medium containing 0.1% DMSO.
Evaluation of cancer cell inhibition against the prostatic cancer cells (PC-3) was made as follows. • A: Cancer cell growth rate is less than 20% (cancer cell inhibitory (growth suppressive) effect is extremely high) • B: Cancer cell growth rate is 20% or more and less than 50% (cancer cell inhibitory (growth suppressive) effect is high) • C: Cancer cell growth rate is 50% or more (cancer cell inhibitory (growth suppressive) effect is low)

[3] = test system: K562 ALDH (−) fraction (general cancer cells); test: Cancer stem-cell selective inhibitory action against chronic myelocytic leukemia cells, ALDH (−) fraction, CellTiter-Glo; assay type: cell-based, Human; conditions: Homo sapiens, 24 hours, relative to 0.1% DMSO, read-out: ALDH(−) (growth rate)
Method: Human chronic myelocytic leukemia cells, K562, were pre-cultured in RPMI1640 medium containing 10% FBS at 37° C. in a 5% CO2 ambient. Then, a fraction containing 80% or more of cancer stem cells was extracted by use of ALDEFLUOR reagent (manufactured by VERITAS Corporation) and FACSAria flow cytometry (manufactured by Nippon Becton, Dickinson and Company). Subsequently, Compound (5) was added to the medium so as to obtain a final concentration of 10 μg/mL and cultured at 37° C. for 24 hours in a 5% CO2 ambient. The cultured cells were analyzed for viable cell count according to CellTiter-Glo Luminescent Cell Viability Assay (manufactured by Promega KK.). As a reference, the number of cells cultured in a medium containing a 0.1% dimethylsulfoxide solution (hereinafter, simply referred to as DMSO) in place of a medium containing Compound (1), in the aforementioned operation, was used as 0.1. Note that hereinafter, an ALDEFLUOR reagent positive fraction (deemed as cancer stem cells) is represented by ALDH (+), whereas an ALDEFLUOR reagent negative fraction (not deemed as cancer stem cells) is represented by ALDH (−), in some cases.
The same operation as in Experimental Example 12 was repeated except that Compound (5) in Experimental Example 12 was changed to the compounds shown in Table 4 and final concentrations shown in Table 4 were used and viable cell counts were separately analyzed. Note that the growth rate in Examples herein is a numerical value of the number of cells obtained after culture relative to the number of cells (regarded as 0.1) grown in a medium containing 0.1% DMSO.
The same operation as in Experimental Example 12 was repeated except that Compound (5) in Experimental Example 12 was changed to Imatinib (manufactured by NOVARTIS), which is a general anticancer drug, and comparative compounds shown in Table 4 and final concentrations shown in Table 4 were used and viable cell counts were separately analyzed.
The growth suppressive effect of cancer stem cells was evaluated based on the following criteria. Note that the growth rate in Examples herein is a numerical value relative to the number of cells (regarded as 0.1) grown in a medium containing 0.1% DMSO. • A: The value of ALDH (+) is less than 0.5 (growth suppressive effect against cancer stem cells is extremely high) • B: The value of ALDH (+) is 0.5 or more and less than 0.95 (growth suppressive effect against cancer stem cells is high) • C: The value of ALDH (+) is 0.95 or more (no growth suppressive effect against cancer stem cells)
Furthermore, superiority of cancer stem cells was evaluated by comparing cancer stem cells to cancer cells based on the following criteria. ALDH (+) represents cancer stem cells; whereas ALDH (−) represents general cancer cells. • A: The value of ALDH (+)/ALDH (−) is less than 0.8 (selective inhibitory effect against cancer stem cells is extremely high) • B: The value of ALDH (+)/ALDH (−) is 0.8 or more and less than 0.95 (selective inhibitory effect against cancer stem cells is high) • C: The value of ALDH (+)/ALDH (−) is 0.95 or more (no selective inhibitory effect against cancer stem cells)

K562 ALDH (−) cells = test: Cancer stem-cell selective staining, fluorescent microscopy, ALDH (−) cells; assay type: cell-based, Human; conditions: cells cultured for 24 hours in Experimental Example 16 (1 μg/mL)
Method: The cells cultured for 24 hours in Experimental Example 16 were subjected to nuclear staining with Hoechest33342 (manufactured by Dojindo Laboratories) and a fluorescent image observed under AXIOVERT200M inverted fluorescent microscope (manufactured by Carl Zeiss) was photographed.

- Excitation wavelength λex [1]: 614 nm
- Fluorescence wavelength λem [1]: 669 nm
SMILES: COc1ccc(N2c3ccc(/C=C/C4=[N+](C)c5ccccc5C4(C)C)cc3C3CCCC32)cc1 (centres unmarked) [Compound 11]
- activity at 10 µg/mL ([2]; read-out: Evaluation (cancer cell growth rate)): < 20%
- activity at 10 µg/mL ([2]; relative to 0.1% DMSO (100), read-out: Cancer cell growth rate (%)): 6.7%
- activity at 0.05 µg/mL ([3]; 0.05 μg/mL): 77%
- activity at 0.5 µg/mL ([3]; 0.5 μg/mL): 49%
- activity at 1 µg/mL ([3]; 1 μg/mL): 22%
- ALDH(−) (ratio of ALDH (−) cells stained) (K562 ALDH (−) cells): 48.5%
